Source: patent publication US10718756B2, “Mitochondrial apoptotic sensor” (The Regents of the University of California, priority 2016, dated 2020)

How the values were obtained:
[1] = test system: isolated mitochondria (HeLa and RS4;11 cells); assay: Graphene sensor measurement of extra-mitochondrial buffer pH of tethered isolated mitochondria; design: species or system mammalian
Source text: Here, is presented an electronic method to detect extra-mitochondrial pH of isolated mitochondria, based on tethering the mitochondria to one-atom thin graphene. The mitochondria are tethered via graphene bound antibodies which recognize the mitochondrial outer membrane protein, TOM20. Graphene is an excellent conductor and changes in the pH surrounding the mitochondria can change the graphene conductance and be detected electrically. Being optically transparent, the graphene layer also permits optical interrogation of the mitochondria concurrent with analysis of ionic changes.
An isolation buffer containing 225 mM mannitol, 75 mM sucrose, 0.5 mM EGTA, 20 mM HEPES, 0.5% (w/v) BSA, 1× protease inhibitor, pH 7.2 with 1 M KOH was used. […]
After mitochondria isolation, about 6 μg of mitochondrial protein of isolated mitochondria was loaded to a graphene device and incubated for 15 min at room temperature. […] The electrical measurement of Ids versus time and the fluorescence time-lapse measurement of TMRE signal were collected. […] In contrast, fluorescence images were taken once every 5 s for the experiments with CCCP or every 2 min for the experiments with BIM-BH3. […]
Control experiments were carried out in a similar manner with the only difference being the lack of isolated mitochondria. Software was used to analyze all electrical data and the fluorescence data that were exported from ImageJ software. […]

[2] = test system: isolated mitochondria (HeLa and RS4;11 cells); assay: TMRE fluorescence measurement of inner membrane potential (ΔΨm) of tethered isolated mitochondria; design: species or system mammalian; conditions: TMRE signal
Procedure: Before isolation, the confluent cells were stained with 100 nM MITOTRACKER™ Green FM and 40 nM TMRE for 1 hour. Subsequent isolation steps used solutions with 40 nM TMRE because TMRE is a potentiometric dye, which fluctuates in and out of the mitochondria depending on their inner membrane potential. 40 nM was determined as the optimal concentration. Using an inverted microscope with two LED excitation sources (490 nm & 565 nm the red and green fluorescence signals from the MITOTRACKER™ and TMRE were visualized with 20× objective at 200 μm×300 μm, exposure time one second. To process and analyze the images, ImageJ software was used. For the entire field of view analysis, fluorescence intensity was measured from the field of view. In contrast, for single mitochondrion analysis, regions of interest enclosing the mitochondria were defined and three more identical copies of that region of interest were used to define the background noise. Fluorescence signal of the mitochondria was assigned as the measured signal subtracting the noise average. […] The electrical measurement of Ids versus time and the fluorescence time-lapse measurement of TMRE signal were collected. […] In contrast, fluorescence images were taken once every 5 s for the experiments with CCCP or every 2 min for the experiments with BIM-BH3. […]

[3] = exogenous agent, after BIM-BH3 induced MOMP

Compound	buffer pH (pHbuffer) ([1]; agent added to mitochondria on graphene device in KCl buffer with 5 mM succinate, 2 μM rotenone)	ΔΨm ([2]; agent added to mitochondria on graphene device in KCl buffer)	buffer acidification after BIM-BH3 induced MOMP [1, 3]	ΔΨm after BIM-BH3 induced MOMP [2, 3]
N#CC(C#N)=NNc1cccc(Cl)c1 [CCCP]	increase	decrease	–	–
cytochrome c [cytc]	–	–	blocks buffer acidification	rescues
